Test system: eardrum
Assay: Confocal microscopy of ear sections: permeation of vesicles through the eardrum into the middle and inner ear
Excerpt: Further consideration of the various images in FIGS. 10A-11D one may observe from these confocal images of eardrum and vesicles penetration into the middle ear at different time points. To verify the permeation of the formulated vesicles through the eardrum we looked at the ear sections under confocal microscopy. […] (See FIG. 11B).
FIGS. 12A-14D relate to a series of confocal imaging at higher magnification of tympanic membrane.
FIG. 15A is showing imaging specificity of TF-RnB in red. FIG. 15B is showing imaging specificity to DAPI in blue. FIG. 15C is showing a color composite overlay of the images in FIGS. 15A and 15B.
These confocal images from inner ear show particle penetrations beyond the middle ear to inner ear. (FIG. 15C). As such, it is believed that potential applications of various embodiments of a liposomal nanoparticle may be used for inner ear drug delivery.

penetration through eardrum into middle ear (confocal fluorescence) (6 h post-treatment): did not observe any fluorescent
Structure (SMILES): CCN(CC)c1ccc2c(-c3ccccc3C(=O)O)c3ccc(=[N+](CC)CC)cc-3oc2c1.[Cl-] [pure RhB, Rhodamine B]
penetration of tympanic membrane layers (confocal imaging at higher magnification) (6 hours, FIGS. 12D and 14D): stays on the surface of tympanic membrane without any penetration

Reference: US20230285294A1, “METHOD AND SYSTEM FOR OTOTOPICAL DELIVERY USING NANOPARTICLES FOR EAR INFECTION DIAGNOSIS AND TREATMENT” (THE BOARD OF TRUSTEES OF THE LELAND STANFORD JUNIOR …, priority 2020, published 2023)
